Test results reported in PMC6263166 (The protein journal, 2011).
Like-named read-outs stand apart in the source and are kept apart here. Values belong to the compound of their own block, whether it stands above or below them.

Tests used:
CYP1A2 [1] = target: T1, CYP1A2 (Homo sapiens, UniProt P05177); test: biochemical
T1 sequence (P05177 1-516): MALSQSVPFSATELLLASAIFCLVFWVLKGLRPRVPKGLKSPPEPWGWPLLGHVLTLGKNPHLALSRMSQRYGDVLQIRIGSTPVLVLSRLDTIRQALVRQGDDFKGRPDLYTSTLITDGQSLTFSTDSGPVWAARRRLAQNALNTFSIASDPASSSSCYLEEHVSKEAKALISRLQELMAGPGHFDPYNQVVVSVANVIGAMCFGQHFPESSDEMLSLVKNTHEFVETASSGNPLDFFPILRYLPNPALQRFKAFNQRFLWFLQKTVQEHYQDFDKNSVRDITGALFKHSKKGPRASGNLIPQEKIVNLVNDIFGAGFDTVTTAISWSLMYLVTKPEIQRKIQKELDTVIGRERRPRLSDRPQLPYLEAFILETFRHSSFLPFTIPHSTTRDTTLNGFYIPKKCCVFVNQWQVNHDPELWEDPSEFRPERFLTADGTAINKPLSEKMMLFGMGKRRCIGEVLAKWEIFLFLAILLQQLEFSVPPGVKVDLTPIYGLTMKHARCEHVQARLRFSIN

CYP1A2 [2] = conditions: human liver microsomes, ethoxyresorufin as substrate; cited from earlier work
CYP1A2 [3] = target: T1, CYP1A2; test: Inhibition matrix assay; format: biochemical
CYP1A2 [4] = target: T1, CYP1A2; conditions: for concentrations at which hCYP1A2 was significantly inhibited: p < 0.05 compared to DMSO control, tested 0.005-1.5 μM
CYP1A2 [5] = conditions: cited from earlier work
CYP1A2 [6] = target: T1, CYP1A2; test: Partition ratio by titration of the enzyme with the inactivator; format: biochemical
CYP1A2 [7] = target: T1, CYP1A2; test: in vitro
CYP1A2 [8] = target: T1, CYP1A2; test: NADPH-dependent and GSH- and SOD-independent inactivation; format: biochemical; conditions: 8 μM isopimpinellin
CYP1A2 [9] = target: T1, CYP1A2; test: Substrate protection; format: biochemical; conditions: 1.2 μM (KI) isopimpinellin
CYP1A2 [10] = target: T1, CYP1A2
CYP1A2 [11] = target: T1, CYP1A2; test: Irreversibility of inactivation; format: biochemical
[12] = human liver microsomes, various substrates

Structure (SMILES): CC(C)=CCOc1c2occc2cc2ccc(=O)oc12 [imperatorin]
- IC50 (CYP1A2 [1]): 0.02 µM
- IC50 (CYP1A2 [2]): 0.38 ± 0.12 µM
- Ki (CYP1A2 [3]): 0.007 µM
- mode of inhibition (CYP1A2 [3]; Dixon plots of the kinetics data): mixed inhibition
- concentrations at which hCYP1A2 was significantly inhibited (CYP1A2 [4]): ≥ 0.005 µM

- IC50 (CYP1A2 [1]): 0.79 µM
- Ki (CYP1A2 [3]): 0.1 µM
- mode of inhibition (CYP1A2 [3]): mixed inhibition
Structure (SMILES): Cc1cc2cc3c(C)cc(=O)oc3c(C)c2o1 [trioxsalen, reference compound]

Structure (SMILES): O=c1ccc2ccc3occc3c2o1 [angelicin]
- IC50 (CYP1A2 [1]): 9.6 µM
- significance of hCYP1A2 inhibition (CYP1A2 [4]; p < 0.05, tested 0.5-150 μM): significant hCYP1A2 inhibition at all tested concentrations

- IC50 (CYP1A2 [1]): 0.46 µM
- partition ratio (CYP1A2 [6]; 0.25-64 μM, preincubation 30 min, extrapolated from lower ratio data points): 8
- remaining CYP1A2 activity at high inactivator to enzyme ratios (CYP1A2 [6]; five highest concentration ratios of isopimpinellin to hCYP1A2): no remaining CYP1A2 activity
- KI (inactivation) (CYP1A2 [7]): 1.2 µM
- kinact (CYP1A2 [7]): 0.00567 s⁻¹
- kinact/KI (CYP1A2 [7]): 5000 M⁻¹ s⁻¹
- activity of hCYP1A2 (CYP1A2 [9]; 0 μM methoxyresorufin in preincubation): 31.8%
- activity of hCYP1A2 (CYP1A2 [9]; 0.4 μM methoxyresorufin in preincubation): 33.9%
- activity of hCYP1A2 (CYP1A2 [9]; 2.0 μM methoxyresorufin in preincubation): 36.9%
- activity of hCYP1A2 (CYP1A2 [9]; 10 μM methoxyresorufin in preincubation): 65.4%
- t1/2 (time required for half the enzyme molecules to be inactivated) (CYP1A2 [10]): 2.05 ± 0.22 min
- concentrations at which hCYP1A2 was significantly inhibited (CYP1A2 [4]): ≥ 0.05 µM
- activity remaining pre- and post-dialysis (CYP1A2 [11]; 6.4 μM, one assay with six replicates (assay development)): 24 ± 2%
- activity recovered after dialysis (CYP1A2 [11]; 8 μM, after 20 h of dialysis): approximately 21%
Structure (SMILES): COc1c2ccoc2c(OC)c2oc(=O)ccc12 [isopimpinellin]
- IC50 (CYP1A2 [2]): 0.86 ± 0.18 µM
- effect of GSH on inactivation (CYP1A2 [8]; GSH 250 μM): GSH failed to protect the hCYP1A2 inactivation
- effect of SOD on inactivation (CYP1A2 [8]; SOD 1000 units): SOD did not prevent hCYP1A2 from inactivation, but rather enhanced the inactivation
- effect of NADPH on inactivation (CYP1A2 [8]; with and without 250 μM NADPH): the lack of NADPH results in the loss of the inhibitory effect
